Consider 46 compounds from ChEMBL document CHEMBL4342430, “An Agonist Radioligand for the Proinflammatory Lipid-Activated G Protein-Coupled Receptor GPR84 Providing Structural Insights” (J Med Chem, 2020).

The term pKi denotes −log10 of the Ki, conventionally taken in molar units. One may read the pIC50 as the negative decadic logarithm of the IC50, by convention in mol/L.

The target in this assay is G-protein coupled receptor 84 (Homo sapiens, UniProt Q9NQS5). Description: Displacement of [3H]PSB-1584 from recombinant human GPR84 expressed in CHO cell membranes co-expressing beta-arrestin2 measured after 6 hrs by scintillation counting method.
G-protein coupled receptor 84, sequence (Q9NQS5 whole entry): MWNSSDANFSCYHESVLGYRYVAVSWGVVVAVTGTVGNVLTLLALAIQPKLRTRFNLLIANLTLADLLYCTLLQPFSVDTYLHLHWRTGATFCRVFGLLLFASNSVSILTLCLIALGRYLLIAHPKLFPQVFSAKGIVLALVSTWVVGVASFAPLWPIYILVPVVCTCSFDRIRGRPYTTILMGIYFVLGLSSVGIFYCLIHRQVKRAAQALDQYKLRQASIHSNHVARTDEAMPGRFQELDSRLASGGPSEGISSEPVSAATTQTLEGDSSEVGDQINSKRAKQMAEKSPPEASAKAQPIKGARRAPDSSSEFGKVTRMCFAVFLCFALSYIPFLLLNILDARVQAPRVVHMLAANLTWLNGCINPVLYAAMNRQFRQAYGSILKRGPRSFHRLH

Structures are written as SMILES. pIC50, pKi: −log10 of the molar value.

As for `O=c1cc(NCCc2cccc(Cl)c2)[nH]c(=O)[nH]1`, the negative-log Ki (pKi) was 8.32.

Take `O=c1cc(NCCc2ccccc2F)[nH]c(=O)[nH]1`: the pKi is 7.45.

On to `CCCC(c1c[nH]c2ccccc12)c1c[nH]c2ccccc12`, for which the pIC50 is 4.65.

For `CCC/C=C/CNc1cc(=O)[nH]c(=O)[nH]1`, the pKi was 7.43.

For `CCCCCCNC(=O)c1cc(=O)[nH]c(=O)[nH]1`, the pKi is 6.33.

As to `O=c1cc(NCCCCCCCO)[nH]c(=O)[nH]1`, the pKi was 6.57.

Turning to `CCc1ccc(CCNc2cc(=O)[nH]c(=O)[nH]2)cc1`, the pKi is 9.24.

As for `CCCCCCSc1nc(O)cc(C(=O)O)n1`, the pKi was 6.84.

`CCC(c1c[nH]c2ccccc12)c1c[nH]c2ccccc12`: the pIC50 was 4.33.

In the case of `O=c1cc(O)nc(SCCc2ccc(Cl)cc2)[nH]1`, the pKi was 8.58.

Consider `O=c1cc(O)nc(SCCc2ccc(Br)cc2)[nH]1`, for which the pKi is 8.50.

For `O=c1cc(NCCc2cccc(F)c2)[nH]c(=O)[nH]1`, the pKi is 8.02.

Consider `CCCCCNc1cc(=O)[nH]c(=O)[nH]1`, for which the pKi was 7.04.

As for `CCCCCCCCNc1[nH]c(=O)[nH]c(=O)c1Br`, the pKi is 7.46.

For `O=c1cc(NCCc2ccccc2Cl)[nH]c(=O)[nH]1`, the pKi was 7.44.

As for `O=C(NCCCc1ccccc1)c1cc(=O)[nH]c(=O)[nH]1`, the pKi was 5.80.

Regarding `O=c1cc(N2CCN(c3ccc(Cl)cc3)CC2)[nH]c(=O)[nH]1`, the pKi is 7.35.

With `O=c1cc(O)nc(SCCc2ccc(C(F)(F)F)cc2)[nH]1`, the pKi was 7.44.

For the compound `O=c1cc(NCCc2c[nH]c3ccccc23)[nH]c(=O)[nH]1`, the pKi is 6.30.

As for `Cc1ccc(CCSc2nc(O)cc(=O)[nH]2)cc1`, the pKi was 8.48.

`O=Nc1c(NCCCc2ccccc2)[nH]c(=O)[nH]c1=O`: the pKi is 6.72.

Take `CCCCCCOC(=O)c1cc(=O)[nH]c(=O)[nH]1`: the pKi was 5.92.

For `CCCCCCCCCNc1cc(=O)[nH]c(=O)[nH]1`, the pKi is 8.95.

Take `O=c1cc(NCCCOc2ccccc2)[nH]c(=O)[nH]1`: the pKi was 8.68.

`O=c1cc(NCCc2ccc(F)cc2)[nH]c(=O)[nH]1`: the negative-log Ki (pKi) is 7.94.

With `O=c1cc(NCCc2cccc(Br)c2)[nH]c(=O)[nH]1`, the pKi was 8.40.

As for `CCCCCCCCNc1[nH]c(=O)[nH]c(=O)c1N=O`, the pKi is 7.43.

Consider `O=c1cc(N2CCC(Cc3ccccc3)CC2)[nH]c(=O)[nH]1`, for which the pKi was 7.73.

`Cn1cc(Cc2cn(C)c3ccccc23)c2ccccc21`: the pIC50 was 4.85.

With `Oc1cc(NCCCCc2ccccc2)nc(O)n1`, the pKi was 9.24.

As for `CCCCCCCCN(C)c1cc(=O)[nH]c(=O)[nH]1`, the pKi is 8.44.

For the compound `CCCCCCCNc1[nH]c(=O)[nH]c(=O)c1N=O`, the pKi was 7.23.

Consider `O=c1cc(NCCc2ccc(Cl)cc2Cl)[nH]c(=O)[nH]1`, for which the pKi is 8.64.

Turning to `CCCCCCNc1[nH]c(=O)[nH]c(=O)c1Br`, the pKi is 6.65.

In the case of `Clc1ccc2c(Cc3c[nH]c4cc(Cl)ccc34)c[nH]c2c1`, the pIC50 was 4.36.

Turning to `Oc1cc(O)nc(SCCCCc2ccccc2)n1`, the pKi is 9.49.

As for `O=c1cc(N2CCN(C3CCc4ccccc43)CC2)[nH]c(=O)[nH]1` (stereo unspecified), the pKi was 7.83.

Consider `CCCCCCN(C)c1cc(=O)[nH]c(=O)[nH]1`, for which the pKi is 8.16.

`CCCCCNC(=O)c1cc(=O)[nH]c(=O)[nH]1`: the negative-log Ki (pKi) is 5.81.

As to `Oc1cc(O)nc(SCCCc2ccccc2)n1`, the pKi is 9.15.

For `O=c1cc(N2CCN(Cc3cccc4ccccc34)CC2)[nH]c(=O)[nH]1`, the pKi is 7.20.

`O=c1cc(O)nc(SCCc2ccc(F)cc2)[nH]1`: the negative logarithm of the Ki (pKi) is 8.42.

Take `CCCCCCSc1nccc(O)n1`: the pKi was 5.46.

Consider `O=c1cc(NCCOc2ccccc2)[nH]c(=O)[nH]1`, for which the pKi was 8.51.

In the case of `Cc1ccc(CCNc2cc(=O)[nH]c(=O)[nH]2)cc1`, the pKi is 8.90.

As for `CCCCCCSc1nc(C)cc(O)n1`, the pKi was 5.44.
